According to ChEMBL document CHEMBL1201862, “PubChem BioAssay data set” (2004):
Activity calls are given as the source filed them.

Experiments:
[1] = molecular target: T1, Microphthalmia-associated transcription factor (Homo sapiens, UniProt O75030); experiment: TRPM1 promoter luciferase signal decrease, dose response, MITF inhibitor project, cell-based, SK-MEL-5, cherry-picked, set 3 (AID 493073); type: functional
T1 sequence (O75030 whole entry): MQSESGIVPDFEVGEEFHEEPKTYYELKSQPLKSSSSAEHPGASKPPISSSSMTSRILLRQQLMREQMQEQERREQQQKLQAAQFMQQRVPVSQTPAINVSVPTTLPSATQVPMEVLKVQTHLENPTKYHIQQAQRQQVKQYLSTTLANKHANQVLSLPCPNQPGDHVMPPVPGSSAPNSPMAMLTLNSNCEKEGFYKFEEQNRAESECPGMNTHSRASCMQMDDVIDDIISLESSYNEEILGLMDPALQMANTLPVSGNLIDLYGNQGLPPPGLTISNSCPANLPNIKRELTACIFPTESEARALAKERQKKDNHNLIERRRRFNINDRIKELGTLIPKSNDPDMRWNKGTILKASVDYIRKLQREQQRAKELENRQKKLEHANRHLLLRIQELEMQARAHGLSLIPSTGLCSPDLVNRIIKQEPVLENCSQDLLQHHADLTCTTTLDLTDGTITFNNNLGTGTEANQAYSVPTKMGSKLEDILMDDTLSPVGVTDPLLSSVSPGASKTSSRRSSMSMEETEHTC

[2] = molecular target: T2, Ubiquitin-conjugating enzyme E2 N (Homo sapiens, UniProt P61088); type: functional;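 further: Dose-response confirmation in a TR-FRET assay detecting UBC13-driven polyubiquitin chain formation, inhibition measured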
T2 sequence (P61088 whole entry): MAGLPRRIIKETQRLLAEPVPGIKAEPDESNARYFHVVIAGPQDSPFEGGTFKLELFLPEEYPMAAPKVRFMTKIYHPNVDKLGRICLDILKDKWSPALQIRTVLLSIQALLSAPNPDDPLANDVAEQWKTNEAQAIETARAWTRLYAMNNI

[3] = molecular target: T3, Coagulation factor XII (Homo sapiens, UniProt P00748); type: functional;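 further: activated factor XIIa alpha cleaving a fluorogenic AMC peptide substrate; inhibitor potency from loss of enzyme activity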
T3 sequence (P00748 whole entry): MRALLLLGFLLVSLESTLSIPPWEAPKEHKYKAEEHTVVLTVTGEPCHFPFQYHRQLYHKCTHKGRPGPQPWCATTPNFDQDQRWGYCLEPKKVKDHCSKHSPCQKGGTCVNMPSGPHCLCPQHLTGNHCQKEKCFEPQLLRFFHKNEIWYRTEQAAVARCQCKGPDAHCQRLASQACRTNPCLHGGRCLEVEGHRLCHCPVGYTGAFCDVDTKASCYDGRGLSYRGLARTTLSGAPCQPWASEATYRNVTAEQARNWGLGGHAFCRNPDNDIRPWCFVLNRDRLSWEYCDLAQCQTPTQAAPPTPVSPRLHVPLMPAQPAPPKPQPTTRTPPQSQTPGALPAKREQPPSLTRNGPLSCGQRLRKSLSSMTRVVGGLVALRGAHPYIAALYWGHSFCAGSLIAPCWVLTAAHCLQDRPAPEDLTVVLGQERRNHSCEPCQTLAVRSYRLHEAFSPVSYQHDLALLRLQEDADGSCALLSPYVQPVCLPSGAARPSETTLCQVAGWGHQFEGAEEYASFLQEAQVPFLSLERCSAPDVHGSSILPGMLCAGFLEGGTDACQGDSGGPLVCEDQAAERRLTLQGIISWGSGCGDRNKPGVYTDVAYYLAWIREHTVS

[4] = molecular target: T4, Alkaline phosphatase, tissue-nonspecific isozyme (Homo sapiens, UniProt P05186); experiment: human TNAP enzyme inhibitors, SAR follow-up, biochemical, luminescent, dose response (AID 1056)
T4 sequence (P05186 whole entry): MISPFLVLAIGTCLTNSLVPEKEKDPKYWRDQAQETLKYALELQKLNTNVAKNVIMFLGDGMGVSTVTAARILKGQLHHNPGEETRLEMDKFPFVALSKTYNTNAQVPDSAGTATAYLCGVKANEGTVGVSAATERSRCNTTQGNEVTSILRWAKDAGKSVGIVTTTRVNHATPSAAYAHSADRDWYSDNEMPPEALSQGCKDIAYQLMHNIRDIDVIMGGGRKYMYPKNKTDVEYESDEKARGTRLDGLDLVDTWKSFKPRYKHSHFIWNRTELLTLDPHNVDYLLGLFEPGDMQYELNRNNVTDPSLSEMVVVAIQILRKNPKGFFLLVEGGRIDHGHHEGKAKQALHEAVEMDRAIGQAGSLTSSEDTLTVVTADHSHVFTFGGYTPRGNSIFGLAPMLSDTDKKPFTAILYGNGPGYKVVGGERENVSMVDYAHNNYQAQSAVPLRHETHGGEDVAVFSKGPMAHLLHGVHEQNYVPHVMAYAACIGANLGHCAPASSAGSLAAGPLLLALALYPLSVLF

[5] = molecular target: Glyceraldehyde-3-phosphate dehydrogenase (Homo sapiens, UniProt P04406)
[6] = cells; type: functional
[7] = molecular target: T5, Leucine aminopeptidase (Plasmodium falciparum 3D7, UniProt Q8IL11); experiment: P. falciparum M17LAP inhibitors, primary screen, biochemical, fluorogenic H-Leu-NHMec substrate, 1536-well (AID 1619); type: functional
T5 sequence (Q8IL11 whole entry): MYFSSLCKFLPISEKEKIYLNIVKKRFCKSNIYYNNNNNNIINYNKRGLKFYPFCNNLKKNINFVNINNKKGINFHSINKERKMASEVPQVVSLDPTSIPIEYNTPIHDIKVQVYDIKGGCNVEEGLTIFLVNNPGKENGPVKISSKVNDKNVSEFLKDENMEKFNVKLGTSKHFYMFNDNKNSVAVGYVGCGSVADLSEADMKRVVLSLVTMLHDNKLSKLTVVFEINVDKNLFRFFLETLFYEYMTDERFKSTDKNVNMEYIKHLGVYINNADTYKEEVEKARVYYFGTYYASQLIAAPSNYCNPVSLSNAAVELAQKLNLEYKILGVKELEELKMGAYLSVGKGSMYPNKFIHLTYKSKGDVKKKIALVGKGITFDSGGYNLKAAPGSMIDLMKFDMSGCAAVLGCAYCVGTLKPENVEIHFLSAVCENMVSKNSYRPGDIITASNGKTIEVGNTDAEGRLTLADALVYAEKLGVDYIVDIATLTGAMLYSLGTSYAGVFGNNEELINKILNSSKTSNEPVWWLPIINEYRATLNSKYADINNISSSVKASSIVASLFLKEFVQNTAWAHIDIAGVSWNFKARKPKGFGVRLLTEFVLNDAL

[8] = test system: H4; experiment: Luminescence Cell-Based Dose Response HTS to Identify Activators of 5'UTR Stem-Loop Driven Prion Protein mRNA Translation in H4 Neuroglioblastoma Cells. [Related pubchem assays: 1829 (Project Summary), 1814 (Primary HTS)]; type: functional; details: Homo sapiens
[9] = Luminescence Cell-Based Dose Response HTS to Identify Activators of Luciferase Translation or Activity in H4 […] Cells. [Related pubchem assays: 1829 (Project Summary), 1814 (Primary HTS)]; type: functional
[10] = molecular target: T6, Cytochrome P450 1A2 (Homo sapiens, UniProt P05177);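 further: PubChem cytochrome P450 panel assay, CYP1A2 panel member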
T6 sequence (P05177 whole entry): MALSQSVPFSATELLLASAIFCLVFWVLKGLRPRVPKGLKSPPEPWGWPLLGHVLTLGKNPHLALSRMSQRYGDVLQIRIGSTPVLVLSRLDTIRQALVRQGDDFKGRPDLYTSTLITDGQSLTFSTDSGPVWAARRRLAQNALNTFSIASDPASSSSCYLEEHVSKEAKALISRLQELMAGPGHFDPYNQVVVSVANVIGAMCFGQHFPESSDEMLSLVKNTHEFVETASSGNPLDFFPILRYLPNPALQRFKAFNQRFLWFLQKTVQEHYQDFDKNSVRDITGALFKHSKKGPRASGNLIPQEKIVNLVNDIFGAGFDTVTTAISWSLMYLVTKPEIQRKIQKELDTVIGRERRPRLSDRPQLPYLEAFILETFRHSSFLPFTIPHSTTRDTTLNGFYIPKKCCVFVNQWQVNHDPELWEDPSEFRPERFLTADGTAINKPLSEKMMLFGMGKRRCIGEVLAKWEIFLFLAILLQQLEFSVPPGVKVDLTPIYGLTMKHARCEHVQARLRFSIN

[11] = Luminescence Cell-Based Dose Confirmation HTS to Identify Activators of 5'UTR Stem-Loop Driven Alpha-Synuclein mRNA Translation in H4 Neuroglioblastoma Cells. [Related pubchem assays: 1829 (Project Summary), 1814 (Primary HTS)]; type: functional
[12] = molecular target: Cytochrome P450 2C9 (Homo sapiens, UniProt P11712)
[13] = test system: Streptococcus; experiment: Group A Streptococcus viability loss, dose response, counter-screen for streptokinase expression inhibitor project, luminescence, BacTiterGlo (AID 1915); type: functional, organism-based;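 further: potency for reduction of bacterial viability or growth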
[14] = test system: Streptococcus sp. 'group A'; experiment: growth inhibition of control SK(-) GAS strain, dose response, counter-screen for streptokinase expression inhibitor project, luminescence, kanamycin, BacTiterGlo, confirmation (AID 1900); type: functional, organism-based
[15] = molecular target: T7, Streptokinase A (Streptococcus pyogenes serotype M1, UniProt P10520); experiment: S. pyogenes streptokinase expression inhibitors, potency, dose response, plasminogen activation absorbance, OD405 (AID 1914); type: functional, Streptococcus pyogenes M1 GAS;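 further: secreted streptokinase activity via plasminogen activation per viability signal from cell pellet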
T7 sequence (P10520 whole entry): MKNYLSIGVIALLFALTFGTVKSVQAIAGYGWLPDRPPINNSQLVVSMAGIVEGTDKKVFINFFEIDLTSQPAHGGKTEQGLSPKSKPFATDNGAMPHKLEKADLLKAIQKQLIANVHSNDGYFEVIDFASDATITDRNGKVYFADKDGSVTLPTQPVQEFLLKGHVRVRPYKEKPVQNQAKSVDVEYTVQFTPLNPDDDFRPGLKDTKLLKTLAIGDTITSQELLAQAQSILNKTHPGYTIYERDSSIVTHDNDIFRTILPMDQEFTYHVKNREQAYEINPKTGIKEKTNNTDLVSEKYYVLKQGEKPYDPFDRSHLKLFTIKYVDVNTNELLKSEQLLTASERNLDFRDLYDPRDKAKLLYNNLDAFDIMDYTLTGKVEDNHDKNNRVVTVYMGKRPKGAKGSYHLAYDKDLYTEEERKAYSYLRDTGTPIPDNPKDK

[16] = molecular target: Disintegrin and metalloproteinase domain-containing protein 17 (Homo sapiens, UniProt P78536); experiment: ADAM17 protease inhibitors, dose response, counter-screen for ADAM10 exosite inhibitor project, biochemical, quenched FRET substrate (AID 743253)
[17] = molecular target: T8, Corticotropin-releasing factor receptor 2/Corticotropin-releasing factor-binding protein (Homo sapiens, UniProt P24387+Q13324); experiment: activators of CRF receptor 2 with binding protein – uHTS hits, confirmation (AID 602473); type: functional; details: read-out: EC50_Mean
T8 sequence (Q13324 whole entry): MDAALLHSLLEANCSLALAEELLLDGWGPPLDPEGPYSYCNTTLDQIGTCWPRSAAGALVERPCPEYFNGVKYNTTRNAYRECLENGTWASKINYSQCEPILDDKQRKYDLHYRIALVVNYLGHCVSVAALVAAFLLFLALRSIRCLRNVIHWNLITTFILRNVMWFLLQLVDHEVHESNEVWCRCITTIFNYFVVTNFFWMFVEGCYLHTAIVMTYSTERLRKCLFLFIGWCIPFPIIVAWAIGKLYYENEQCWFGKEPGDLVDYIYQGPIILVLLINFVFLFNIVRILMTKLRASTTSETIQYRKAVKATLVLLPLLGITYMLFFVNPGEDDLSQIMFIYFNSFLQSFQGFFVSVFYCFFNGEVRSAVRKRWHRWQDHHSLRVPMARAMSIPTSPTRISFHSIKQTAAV
T8 sequence (P24387 whole entry): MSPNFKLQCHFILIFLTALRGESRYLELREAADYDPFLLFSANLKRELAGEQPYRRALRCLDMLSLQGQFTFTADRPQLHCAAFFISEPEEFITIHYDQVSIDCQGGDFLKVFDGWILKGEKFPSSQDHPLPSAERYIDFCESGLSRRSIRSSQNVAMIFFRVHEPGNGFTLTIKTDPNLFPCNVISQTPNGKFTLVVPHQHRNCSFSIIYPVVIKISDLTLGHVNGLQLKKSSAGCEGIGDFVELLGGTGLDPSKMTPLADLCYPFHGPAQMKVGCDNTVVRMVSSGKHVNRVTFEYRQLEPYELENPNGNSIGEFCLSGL

Chain of Glyceraldehyde-3-phosphate dehydrogenase (P04406 whole entry): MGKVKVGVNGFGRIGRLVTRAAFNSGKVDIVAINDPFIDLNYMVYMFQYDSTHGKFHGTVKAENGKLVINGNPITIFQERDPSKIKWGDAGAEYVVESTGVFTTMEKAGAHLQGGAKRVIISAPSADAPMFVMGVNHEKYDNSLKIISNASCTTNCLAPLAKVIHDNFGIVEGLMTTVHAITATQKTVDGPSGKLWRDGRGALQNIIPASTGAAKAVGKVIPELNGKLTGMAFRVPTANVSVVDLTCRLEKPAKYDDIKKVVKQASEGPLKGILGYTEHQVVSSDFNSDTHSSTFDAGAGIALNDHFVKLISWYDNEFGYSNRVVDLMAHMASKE
Chain of Disintegrin and metalloproteinase domain-containing protein 17 (P78536 whole entry, the tested form may be a part): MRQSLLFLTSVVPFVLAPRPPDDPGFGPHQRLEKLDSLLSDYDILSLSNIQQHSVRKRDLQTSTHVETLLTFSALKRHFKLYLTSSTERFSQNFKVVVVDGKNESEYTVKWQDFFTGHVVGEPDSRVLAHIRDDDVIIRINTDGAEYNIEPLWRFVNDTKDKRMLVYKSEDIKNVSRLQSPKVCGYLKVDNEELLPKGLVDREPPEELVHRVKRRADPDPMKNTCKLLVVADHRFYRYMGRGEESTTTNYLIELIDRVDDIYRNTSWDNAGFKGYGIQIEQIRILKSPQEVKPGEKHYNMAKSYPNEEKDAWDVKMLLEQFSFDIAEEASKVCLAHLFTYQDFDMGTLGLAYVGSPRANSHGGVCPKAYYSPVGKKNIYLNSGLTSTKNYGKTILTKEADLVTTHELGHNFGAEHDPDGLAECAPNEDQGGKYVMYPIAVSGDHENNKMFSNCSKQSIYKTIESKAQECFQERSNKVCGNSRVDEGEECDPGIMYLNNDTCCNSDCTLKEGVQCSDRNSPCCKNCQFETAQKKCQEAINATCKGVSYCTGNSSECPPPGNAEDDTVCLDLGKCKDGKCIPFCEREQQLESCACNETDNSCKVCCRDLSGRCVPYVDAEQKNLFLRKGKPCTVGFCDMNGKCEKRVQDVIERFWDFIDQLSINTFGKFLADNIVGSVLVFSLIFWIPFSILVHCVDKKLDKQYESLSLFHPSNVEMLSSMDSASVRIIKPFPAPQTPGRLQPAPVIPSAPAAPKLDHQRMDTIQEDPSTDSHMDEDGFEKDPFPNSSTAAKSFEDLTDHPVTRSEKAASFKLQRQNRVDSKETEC
Chain of Cytochrome P450 2C9 (P11712 whole entry): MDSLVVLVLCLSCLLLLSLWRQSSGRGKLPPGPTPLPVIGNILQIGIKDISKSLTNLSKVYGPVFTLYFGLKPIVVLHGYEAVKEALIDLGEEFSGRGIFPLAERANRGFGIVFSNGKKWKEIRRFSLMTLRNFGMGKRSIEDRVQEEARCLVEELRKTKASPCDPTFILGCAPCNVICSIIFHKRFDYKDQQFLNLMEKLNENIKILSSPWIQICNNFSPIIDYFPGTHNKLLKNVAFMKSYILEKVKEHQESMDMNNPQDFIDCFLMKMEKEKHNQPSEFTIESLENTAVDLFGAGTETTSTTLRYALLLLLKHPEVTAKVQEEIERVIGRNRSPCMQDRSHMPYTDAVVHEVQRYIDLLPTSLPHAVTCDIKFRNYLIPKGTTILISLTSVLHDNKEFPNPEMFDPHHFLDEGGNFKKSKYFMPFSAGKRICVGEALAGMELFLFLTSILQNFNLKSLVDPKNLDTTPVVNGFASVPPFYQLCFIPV

For `CCN(CC)CCNC(=O)c1c(C)n(-c2ccccc2)c2cc(Br)c(OC)cc12`, the AC50 [1] was 12.9 µM (active) and the IC50 [2] was > 20 µM (inactive).
With `CCC(CC)c1nnc(NC(=O)Oc2ccccc2)s1` the IC50 [3] was > 50 µM (inactive).
With `CCN(CC)C(=O)c1cc(-c2cc(F)c(Cl)cc2Cl)n[nH]1` the IC50 [4] was 3.63 µM (active) and the IC50 [5] was > 10 µM (inconclusive).
In the case of `CCCOC(=O)c1ccc(NC(=O)c2ccc(Br)o2)cc1`, the IC50 [6] is reported as 30.5 µM (active).
With `CC1CCN(CC2C(=O)O[C@@H]3C[C@@]4(C)CCC[C@H](C)C4=C[C@H]23)CC(C)(C)C1` (stereo not given in full) the AC50 [1] was 16.1 µM (active).
With `O=C(CN1C(=O)C2C3C=CC(C3)C2C1=O)Nc1ccc2c(c1)OCCO2` (stereo not given) the IC50 [7] was 21 µM (active), the EC50 [8] was 19 µM (active) and the EC50 [9] was 22.4 µM (active). The AC50 [10] was 15.8 µM (inconclusive), the EC50 [11] was 15.1 µM (active) and the AC50 [12] was 0.316 µM (inconclusive).
In the case of `O=C(Nc1ccc(N2CCCC2)c(S(=O)(=O)Nc2cccc(C(F)(F)F)c2)c1)c1cccs1`, the EC50 [13] is reported as 10.5 µM (active), the EC50 [14] is reported as 3.38 µM (active) and the EC50 [15] is reported as > 150 µM (not active). The IC50 [16] was > 69.5 µM (inactive).
In the case of `COc1ccc2c(c1OC)C(=O)N(c1nnc(SC)[nH]1)C2=O`, the IC50 [4] is reported as 34.1 µM (active) and the IC50 [5] is reported as > 100 µM (not active).
In the case of `CC(=O)c1ccc(N2CCC(c3cc(-c4ccc(Cl)cc4Cl)n[nH]3)CC2)c([N+](=O)[O-])c1`, the AC50 [10] is reported as 14.1 µM (inconclusive), the EC50 [15] is reported as > 150 µM (not active) and the IC50 [16] is reported as > 69.5 µM (inactive).
In the case of `Cc1cccc(C(=O)NC(=S)NNC(=O)COc2c(C)cccc2C)c1`, the IC50 [7] is reported as 59.1 µM (active) and the EC50 [17] is reported as 1.65 µM (active).
For `c1ccc(Cn2cnc(-c3cccnc3)c2)cc1`, the IC50 [4] was > 100 µM (inactive) and the IC50 [5] was > 100 µM (not active).
With `Cc1ccc(S(=O)(=O)Nc2cnc3ccccc3c2)cc1` the IC50 [4] was 44.9 µM (active) and the IC50 [5] was > 100 µM (not active).
With `COc1cc(OC)c2c(OC)cccc2n1` the IC50 [6] was 30.1 µM (active).
For `CC(/C=C/c1ccccc1)=N\NC(=O)c1ccc2c(c1)OCCO2`, the IC50 [6] was 25.7 µM (active).
